A word on the IC50: it is the point on the concentration scale where inhibition reaches its midpoint. Low values mean higher potency, high ones lower potency. For orientation: melting point means the temperature, or range, at which the solid turns liquid.

The values below come from patent publication US8188078B2 (Sanofi-Aventis, priority 2007, dated 2012).

The target of one data set is T1, c-MET (Homo sapiens, UniProt P08581).
T1 construct: The recombinant DNA His-Tev-MET (956-1390) in pFastBac(Invitrogen); His (N, cleaved yes); Tev (TEV protease site) (N, cleaved yes); made in house; host or cells: SF21 insect cells (baculovirus, pFastBac)
Kind of data set: Test A: HTRF Met test in 96-well format. It is filed as biochemical. In outline:
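The kinase was the Sf21-expressed MET cytoplasmic domain (956–1390), His tag removed, used at 5 nM with compound (0.17 nM–10 µM, 3% DMSO) in 10 mM MOPS pH 7.4. Poly-GAT 1 µg/ml, 10 µM ATP and 5 mM MgCl2 reacted 10 min at RT. After an EDTA stop, phosphotyrosine was detected by HTRF (665/620 ratio).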
A general note: In TR-FRET formats the signal depends on donor and acceptor labels being close together.

Another data set addresses RON (Homo sapiens, UniProt Q04912). Kind of data set: Test B: HTRF RON test in 96-well format. It is filed as biochemical. In outline: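 RON 5 nM pre-incubated 30 min at RT with compound (0.17 nM–10 μM final, 3% DMSO) in MOPS 10 mM pH 7, DTT, Tween 20. Reaction with biotinylated poly-(GAT) 1 μg/ml, ATP 10 μM, MgCl2 5 mM, 30 min RT. Eu-anti-pTyr/streptavidin-XL665 HTRF, 665/620 ratio gives % inhibition, IC50.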

For a further data set, the system named is MKN45 cells. Kind of data set: Test D: cellular proliferation by 14C-thymidine pulse, MKN45 cells. In kind it is cell-based. The following applies: cell line not stated (HCT116 or MKN45). In outline: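 MKN45 cells (7500/well, RPMI + 10% foetal calf serum) treated with 10 concentrations, 10000 to 0.3 nM in 3-fold steps, duplicate. 14C-thymidine (0.1 μCi/well) added at 72 h; incorporation counted after 24 h pulse, 96 h total treatment.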

[1] abbreviates: Homo sapiens, MKN-45, cellular proliferation by 14C-thymidine pulse.

Where only a bound is given, the exact number is not on record here.

T1 sequence (P08581 956-1390): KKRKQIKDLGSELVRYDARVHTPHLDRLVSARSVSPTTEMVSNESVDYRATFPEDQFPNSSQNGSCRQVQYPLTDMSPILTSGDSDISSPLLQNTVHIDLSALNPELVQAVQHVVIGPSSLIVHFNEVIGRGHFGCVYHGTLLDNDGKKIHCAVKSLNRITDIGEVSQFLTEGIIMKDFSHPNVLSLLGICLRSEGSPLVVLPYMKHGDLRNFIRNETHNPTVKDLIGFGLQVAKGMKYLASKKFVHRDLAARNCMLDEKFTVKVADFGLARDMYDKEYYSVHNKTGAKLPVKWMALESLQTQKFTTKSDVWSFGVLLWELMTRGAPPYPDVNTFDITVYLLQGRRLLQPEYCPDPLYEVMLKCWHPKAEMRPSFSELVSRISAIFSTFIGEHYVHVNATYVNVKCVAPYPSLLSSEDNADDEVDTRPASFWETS
Sequence of RON (Q04912 25-1400): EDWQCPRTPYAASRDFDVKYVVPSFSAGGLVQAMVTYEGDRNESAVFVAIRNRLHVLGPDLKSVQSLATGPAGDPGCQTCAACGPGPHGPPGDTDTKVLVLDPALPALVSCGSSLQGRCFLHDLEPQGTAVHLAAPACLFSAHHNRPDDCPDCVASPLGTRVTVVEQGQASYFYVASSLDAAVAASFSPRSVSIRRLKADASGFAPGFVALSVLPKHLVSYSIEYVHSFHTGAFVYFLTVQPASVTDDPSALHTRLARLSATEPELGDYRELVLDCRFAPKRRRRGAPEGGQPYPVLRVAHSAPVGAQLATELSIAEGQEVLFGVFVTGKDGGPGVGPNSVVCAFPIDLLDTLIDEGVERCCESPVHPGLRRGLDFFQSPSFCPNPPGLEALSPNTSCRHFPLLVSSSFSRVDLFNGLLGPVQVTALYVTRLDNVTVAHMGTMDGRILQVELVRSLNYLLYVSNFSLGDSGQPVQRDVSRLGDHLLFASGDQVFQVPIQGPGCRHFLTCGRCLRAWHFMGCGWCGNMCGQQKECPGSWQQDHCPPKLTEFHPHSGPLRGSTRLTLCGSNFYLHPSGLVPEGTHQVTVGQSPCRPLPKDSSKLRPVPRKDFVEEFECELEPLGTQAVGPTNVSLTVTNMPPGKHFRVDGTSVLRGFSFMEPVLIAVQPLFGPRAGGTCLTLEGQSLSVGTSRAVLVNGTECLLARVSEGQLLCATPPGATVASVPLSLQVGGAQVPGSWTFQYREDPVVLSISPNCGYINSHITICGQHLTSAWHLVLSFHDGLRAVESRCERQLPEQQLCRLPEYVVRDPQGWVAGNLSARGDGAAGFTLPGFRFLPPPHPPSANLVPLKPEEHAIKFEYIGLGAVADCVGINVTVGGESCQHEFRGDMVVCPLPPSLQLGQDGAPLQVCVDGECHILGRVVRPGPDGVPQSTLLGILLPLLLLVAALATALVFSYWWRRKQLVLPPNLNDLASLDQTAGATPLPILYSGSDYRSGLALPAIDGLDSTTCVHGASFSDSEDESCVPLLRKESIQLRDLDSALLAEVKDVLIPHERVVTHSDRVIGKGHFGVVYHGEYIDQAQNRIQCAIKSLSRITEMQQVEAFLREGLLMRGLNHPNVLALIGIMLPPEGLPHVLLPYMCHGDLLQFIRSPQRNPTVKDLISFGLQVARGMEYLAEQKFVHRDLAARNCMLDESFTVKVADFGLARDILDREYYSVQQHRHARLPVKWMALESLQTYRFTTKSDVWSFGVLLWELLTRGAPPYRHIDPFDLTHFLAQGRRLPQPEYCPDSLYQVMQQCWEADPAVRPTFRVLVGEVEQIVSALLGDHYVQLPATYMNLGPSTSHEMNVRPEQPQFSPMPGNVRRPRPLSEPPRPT

As for `CC(Oc1cc2sc(NC(=O)NCCN3CCN(C)CC3)nc2cc1F)c1c(Cl)ccc(F)c1Cl` (single isomer, unassigned) [Example 76, 1-{6-[(1R*)-1-(2,6-dichloro-3-fluorophenyl)ethoxy]-5-fluoro-1,3-benzothiazol-2-yl}-3-[2-(4-methylpiperazin-1-yl)ethyl]urea], the IC50 at c-MET was less than 100 nM; against RON, less than 500 nM; in the data set with MKN45 cells (setting [1]), less than 500 nM.
On to `CC(Oc1cc2sc(NC(=O)NCCN3CCN(C)CC3)nc2cc1F)c1c(Cl)ccc(F)c1Cl` (single isomer, unassigned) [Example 77, 1-{6-[(1S*)-1-(2,6-dichloro-3-fluorophenyl)ethoxy]-5-fluoro-1,3-benzothiazol-2-yl}-3-[2-(4-methylpiperazin-1-yl)ethyl]urea], for which the figures for the 50% inhibitory concentration (IC50) against c-MET, at RON and with MKN45 cells (cellular proliferation by 14C-thymidine pulse) were less than 100 nM, 500 to 10000 nM and 500 to 10000 nM, respectively.
`CC(Oc1cc2sc(NC(=O)NCCN3CCCC3)nc2cc1F)c1c(Cl)ccc(F)c1Cl` (single isomer, unassigned) [Example 85, 1-{6-[(1R*)-1-(2,6-dichloro-3-fluorophenyl)ethoxy]-5-fluoro-1,3-benzothiazol-2-yl}-3-[2-(pyrrolidin-1-yl)ethyl]urea]: the IC50 at c-MET is less than 100 nM; at RON, less than 500 nM; with MKN45 cells (setting [1]), less than 500 nM.
Consider `CC(Oc1cc2sc(NC(=O)NCCN)nc2cc1F)c1c(Cl)ccc(F)c1Cl` (single isomer, unassigned) [Example 89, 1-(2-aminoethyl)-3-{6-[(1R*)-1-(2,6-dichloro-3-fluorophenyl)ethoxy]-5-fluoro-1,3-benzothiazol-2-yl}urea], for which the IC50 on c-MET was less than 100 nM; on RON, 500 to 10000 nM; in the data set with MKN45 cells (setting [1]), 500 to 10000 nM.
With `CC(Oc1cc2[nH]c(NC(=O)NCCN3CCOCC3)nc2cc1F)c1c(Cl)ccc(F)c1Cl` (stereo not shown) [Example 6, 1-{6-[1-(2,6-dichloro-3-fluorophenyl)ethoxy]-5-fluoro-1H-benzimidazol-2-yl}-3-(2-morpholin-4-ylethyl)urea], the melting point is 190 to 192 °C. The IC50 against c-MET was less than 100 nM. Also, at RON, the 50% inhibitory concentration (IC50) is less than 500 nM. For the same compound, the IC50 in the data set with MKN45 cells (setting [1]) is 500 to 10000 nM.
Taken in the same sequence, the figures for `O=C(Nc1nc2ccc(OCc3c(Cl)cccc3Cl)cc2[nH]1)C1CC1` [Example 7, N-{6-[(2,6-dichlorobenzyl)oxy]-1H-benzimidazol-2-yl}cyclopropane carboxamide] were 133 to 135 °C, less than 100 nM, 500 to 10000 nM and less than 500 nM.
In the case of `CC(Oc1cc2sc(NC(=O)NCCN3CCN(C)CC3)nc2cc1F)c1c(Cl)ccc(F)c1Cl` (stereo not shown) [Example 75, 1-{6-[1-(2,6-dichloro-3-fluorophenyl)ethoxy]-5-fluoro-1,3-benzothiazol-2-yl}-3-[2-(4-methylpiperazin-1-yl)ethyl]urea], the melting point is 131 to 134 °C. The compound further showed a concentration for half-maximal inhibition (IC50) against c-MET of less than 100 nM. The IC50 on RON is less than 500 nM. In the data set on MKN45 cells (setting [1]), this compound showed a 50% inhibitory concentration (IC50) of less than 500 nM.
Turning to `CC(Oc1cc2sc(NC(=O)NCCCN3CCCC3=O)nc2cc1F)c1c(Cl)ccc(F)c1Cl` (stereo not shown) [Example 78, 1-{6-[1-(2,6-dichloro-3-fluorophenyl)ethoxy]-5-fluoro-1,3-benzothiazol-2-yl}-3-[3-(2-oxopyrrolidin-1-yl)propyl]urea], the melting point lay within 191 to 195 °C. The same compound yielded an IC50 at c-MET of less than 100 nM. Moreover, at RON, the IC50 is less than 500 nM. In the data set with MKN45 cells (setting [1]), the 50% inhibitory concentration (IC50) lay within 500 to 10000 nM.
Taken in the same sequence, the figures for `CC(Oc1cc2sc(NC(=O)NCCC3CCCN3C)nc2cc1F)c1c(Cl)ccc(F)c1Cl` (stereo not shown) [Example 79, 1-{6-[1-(2,6-dichloro-3-fluorophenyl)ethoxy]-5-fluoro-1,3-benzothiazol-2-yl}-3-[2-(1-methylpyrrolidin-2-yl)ethyl]urea] were 78 to 89 °C, less than 100 nM, less than 500 nM and 500 to 10000 nM.
Taken in the same sequence, the figures for `COCCNC(=O)Nc1nc2cc(F)c(OC(C)c3c(Cl)ccc(F)c3Cl)cc2s1` (stereo not shown) [Example 81, 1-{6-[1-(2,6-dichloro-3-fluorophenyl)ethoxy]-5-fluoro-1,3-benzothiazol-2-yl}-3-(2-methoxyethyl)urea] were 176 to 179 °C, less than 100 nM, less than 500 nM and 500 to 10000 nM.
As for `CCN(CC)CCNC(=O)Nc1nc2ccc(OC(C)c3c(Cl)ccc(F)c3Cl)cc2s1` (stereo not shown) [Example 82, 1-{6-[1-(2,6-dichloro-3-fluorophenyl)ethoxy]-1,3-benzothiazol-2-yl}-3-[2-(diethylamino)ethyl]urea], the melting point was in the range of 74 to 83 °C. Moreover, the IC50 against c-MET is less than 100 nM. At RON, this compound gave an IC50 of 500 to 10000 nM. In the data set with MKN45 cells (setting [1]), this compound returned an IC50 of 500 to 10000 nM.
With `CCN(CC)CCCNC(=O)Nc1nc2ccc(OC(C)c3c(Cl)ccc(F)c3Cl)cc2s1` (stereo not shown) [Example 83, 1-{6-[1-(2,6-dichloro-3-fluorophenyl)ethoxy]-1,3-benzothiazol-2-yl}-3-[3-(diethylamino)propyl]urea], the values for the IC50 on c-MET, against RON and in the data set with MKN45 cells (setting [1]) were less than 100 nM, 500 to 10000 nM and 500 to 10000 nM, respectively.
In turn, `CC(Oc1cc2sc(NC(=O)NCCN3CCCC3)nc2cc1F)c1c(Cl)ccc(F)c1Cl` (stereo not shown) [Example 84, 1-{6-[1-(2,6-dichloro-3-fluorophenyl)ethoxy]-5-fluoro-1,3-benzothiazol-2-yl}-3-[2-(pyrrolidin-1-yl)ethyl]urea] returned a melting point of 178 to 190 °C. Moreover, the IC50 at c-MET was less than 100 nM. On RON, the IC50 fell in the range of 500 to 10000 nM. The compound also yielded an IC50 in the data set on MKN45 cells (setting [1]) of less than 500 nM.
In the same order, the values of `CC(Oc1cc2sc(NC(=O)NCCN)nc2cc1F)c1c(Cl)ccc(F)c1Cl` (stereo not shown) [Example 88, 1-(2-aminoethyl)-3-{6-[1-(2,6-dichloro-3-fluorophenyl)ethoxy]-5-fluoro-1,3-benzothiazol-2-yl}urea] are 178 °C, less than 100 nM, 500 to 10000 nM and 500 to 10000 nM.
In the same order, the values of `CC(Oc1cc2sc(NC(=O)NCCN(C)Cc3ccccc3)nc2cc1F)c1c(Cl)ccc(F)c1Cl` (stereo not shown) [Example 94, 1-{2-[benzyl(methyl)amino]ethyl}-3-{6-[1-(2,6-dichloro-3-fluorophenyl)ethoxy]-5-fluoro-1,3-benzothiazol-2-yl}urea] are 142 to 146 °C, less than 100 nM, 500 to 10000 nM and 500 to 10000 nM.
As to `CC(Oc1cc2sc(NC(=O)NCCN(C)C(=O)OC(C)(C)C)nc2cc1F)c1c(Cl)ccc(F)c1Cl` (stereo not shown) [Example 95], the IC50 at c-MET was less than 100 nM; against RON it was 500 to 10000 nM; in the data set on MKN45 cells (setting [1]), 500 to 10000 nM.
`CNCCNC(=O)Nc1nc2cc(F)c(OC(C)c3c(Cl)ccc(F)c3Cl)cc2s1` (stereo not shown) [Example 96, 1-{6-[1-(2,6-dichloro-3-fluorophenyl)ethoxy]-5-fluoro-1,3-benzothiazol-2-yl}-3-[2-(methylamino)ethyl]urea] showed a melting point of 173 to 188 °C. On c-MET, this compound gave an IC50 of less than 100 nM. The IC50 against RON was less than 500 nM. The IC50 in the data set with MKN45 cells (setting [1]) fell in the range of 500 to 10000 nM.
For `CC(Oc1cc2sc(NC(=O)NCCOCc3ccccc3)nc2cc1F)c1c(Cl)ccc(F)c1Cl` (stereo not shown) [Example 97, 1-[2-(benzyloxy)ethyl]-3-{6-[1-(2,6-dichloro-3-fluorophenyl)ethoxy]-5-fluoro-1,3-benzothiazol-2-yl}urea], the melting point amounted to 170 °C. Besides, on c-MET, the concentration for half-maximal inhibition (IC50) was less than 100 nM. At RON, the IC50 was 500 to 10000 nM. Also, the IC50 with MKN45 cells (setting [1]) fell in the range of 500 to 10000 nM.
For `CC(Oc1cc2sc(NC(=O)NCCO)nc2cc1F)c1c(Cl)ccc(F)c1Cl` (stereo not shown) [Example 98, 1-{6-[1-(2,6-dichloro-3-fluorophenyl)ethoxy]-5-fluoro-1,3-benzothiazol-2-yl}-3-(2-hydroxyethyl)urea], the melting point stood at 198 °C. The IC50 against c-MET was less than 100 nM. Moreover, on RON, the IC50 was less than 500 nM. This compound registered an IC50 with MKN45 cells (setting [1]) of 500 to 10000 nM.
